{"source": "patent US6890944B2", "about": "“Organic acid salt of amlodipine” (priority 2002, dated 2005)", "format_in_all_cases": "physicochemical", "key": {"[1]": {"test": "Test for light stability: aqueous solutions stored at 25° C. for 4 weeks exposed to sunlight (HPLC)", "conditions": "25° C. sunlight; for Content (HPLC): aqueous solution, stored for 4 weeks; for colour change: light stability test, 4 weeks", "experimental": "The resulting aqueous solutions were stored at 25° C. for 4 weeks while being exposed to sunlight. A measurement was made of the contents of the salts with resort to HPLC under the same conditions as in the chemical stability test."}, "[2]": {"test": "Test for solubility in various solvents", "conditions": "based on weight of amlodipine, note: dissolved at 37° C."}, "[3]": {"test": "Test for hygroscopicity: water content (K.F. water %) at 25° C. at different humidity levels", "conditions": "for water content (K.F. water %): 25° C."}, "[4]": {"test": "Chemical stability in solid state, accelerated test at 60° C. (HPLC content)"}, "[5]": {"test": "Chemical stability in aqueous state, stored at 25° C. for 4 weeks in complete darkness (HPLC)", "conditions": "in distilled water", "experimental": "The resulting aqueous solutions were stored at 25° C. for 4 weeks in complete darkness, after which a measurement was made of the contents of the salts with resort to HPLC under the same conditions as in the solid state."}}, "note": "Read-outs that look alike come from different tables or passages of the source.", "data": [{"compound": "CCOC(=O)C1=C(COCCN)NC(C)=C(C(=O)OC)C1c1ccccc1Cl", "note": "(centres unmarked) [Besylate, amlodipine besylate, reference compound]", "values": [{"measurement": "Content (HPLC)", "setting": "[1]", "value": 82.5, "unit": "%"}, {"measurement": "colour change", "setting": "[1]; listed as amlodipine besylate", "value": "turned yellow from white"}, {"measurement": "solubility", "setting": "[2]; Dist. Water, 25° C. (text)", "value": 1.29, "unit": "mg/mL"}, {"measurement": "solubility", "setting": "[2]; pH 2, ionic strength 0.2 buffer, 25° C. (text)", "value": 1.29, "unit": "mg/mL"}, {"measurement": "solubility", "setting": "[2]; pH 4, ionic strength 0.2 buffer, 25° C. (text)", "value": 1.32, "unit": "mg/mL"}, {"measurement": "solubility", "setting": "[2]; pH 6, ionic strength 0.2 buffer, 25° C.", "value": 1.28, "unit": "mg/mL"}, {"measurement": "solubility", "setting": "[2]; pH 7, ionic strength 0.2 buffer, 25° C.", "value": 0.64, "unit": "mg/mL"}, {"measurement": "solubility", "setting": "[2]; pH 7.4, ionic strength 0.2 buffer, 25° C. (text)", "value": 1.35, "unit": "mg/mL"}, {"measurement": "solubility", "setting": "[2]; pH 8, ionic strength 0.2 buffer, 25° C. (text)", "value": 1.25, "unit": "mg/mL"}, {"measurement": "water content (K.F. water %)", "setting": "[3]; 25% RH, 1 week", "value": 0.10, "unit": "%"}, {"measurement": "water content (K.F. water %)", "setting": "[3]; 60% RH, 1 week", "value": 0.09, "unit": "%"}, {"measurement": "water content (K.F. water %)", "setting": "[3]; 75% RH, 1 week", "value": 0.15, "unit": "%"}, {"measurement": "water content (K.F. water %)", "setting": "[3]; Initial", "value": 0.14, "unit": "%"}, {"measurement": "HPLC content", "setting": "[4]; 1 week", "value": 99.6, "unit": "%"}, {"measurement": "HPLC content", "setting": "[4]; 2 weeks", "value": 99.4, "unit": "%"}, {"measurement": "HPLC content", "setting": "[4]; 4 weeks", "value": 99.2, "unit": "%"}, {"measurement": "HPLC content", "setting": "[4]; initial", "value": 99.6, "unit": "%"}]}, {"compound": "CCOC(=O)C1=C(COCCN)NC(C)=C(C(=O)OC)C1c1ccccc1Cl.Cc1ccc(S(=O)(=O)O)cc1", "note": "(centres unmarked) [Tosylate, Amlodipine Para-toluenesulfonate]", "values": [{"measurement": "Content (HPLC)", "setting": "[1]", "value": 72.0, "unit": "%"}]}, {"compound": "CCOC(=O)C1=C(COCCN)NC(C)=C(C(=O)OC)C1c1ccccc1Cl.O=C(O)Cc1ccc(O)cc1", "note": "(centres unmarked) [amlodipine p-hydroxyphenylacetate]", "values": [{"measurement": "decomposition products / content change (HPLC)", "setting": "[5]", "value": "neither decomposition products nor content change is found"}, {"measurement": "Content (HPLC)", "setting": "[1]", "value": 98.9, "unit": "%"}, {"measurement": "colour change", "setting": "[1]", "value": "kept its original white color"}, {"measurement": "solubility", "setting": "[2]; Dist. Water, 25° C. (text), listed as p-Hydroxyphenylacetate", "value": 3.0, "unit": "mg/mL"}, {"measurement": "solubility", "setting": "[2]; buffer pH 6, ionic strength 0.2, 25 °C, pH 6, aqueous buffer, pH 6, ionic strength 0.2 buffer, 25° C., read-out: solubility", "value": 2.2, "unit": "mg/mL"}, {"measurement": "solubility", "setting": "[2]; buffer pH 7, ionic strength 0.2, 25 °C, pH 7, aqueous buffer, pH 7, ionic strength 0.2 buffer, 25° C., read-out: solubility", "value": 1.1, "unit": "mg/mL"}, {"measurement": "solubility", "setting": "[2]; pH 2, ionic strength 0.2 buffer, 25° C. (text), listed as p-Hydroxyphenylacetate", "value": 8.9, "unit": "mg/mL"}, {"measurement": "solubility", "setting": "[2]; pH 4, ionic strength 0.2 buffer, 25° C. (text), listed as p-Hydroxyphenylacetate", "value": 8.8, "unit": "mg/mL"}, {"measurement": "solubility", "setting": "[2]; pH 7.4, ionic strength 0.2 buffer, 25° C. (text), listed as p-Hydroxyphenylacetate", "value": 4.0, "unit": "mg/mL"}, {"measurement": "solubility", "setting": "[2]; pH 8, ionic strength 0.2 buffer, 25° C. (text), listed as p-Hydroxyphenylacetate", "value": 3.0, "unit": "mg/mL"}, {"measurement": "water content (K.F. water %)", "setting": "[3]; 25% RH, 1 week, listed as p-hydroxyphenylacetate", "value": 0.08, "unit": "%"}, {"measurement": "water content (K.F. water %)", "setting": "[3]; 60% RH, 1 week, listed as p-hydroxyphenylacetate", "value": 0.1, "unit": "%"}, {"measurement": "water content (K.F. water %)", "setting": "[3]; 75% RH, 1 week, listed as p-hydroxyphenylacetate", "value": 0.14, "unit": "%"}, {"measurement": "water content (K.F. water %)", "setting": "[3]; 90% RH, 1 week", "value": 0.17, "unit": "%"}, {"measurement": "water content (K.F. water %)", "setting": "[3]; Initial, listed as p-hydroxyphenylacetate", "value": 0.15, "unit": "%"}, {"measurement": "hygroscopicity", "setting": "[3]; relative humidity 95%", "value": "≤ 0.5", "unit": "%"}, {"measurement": "HPLC content", "setting": "[4]; 1 week", "value": 99.6, "unit": "%"}, {"measurement": "HPLC content", "setting": "[4]; 2 weeks", "value": 99.5, "unit": "%"}, {"measurement": "HPLC content", "setting": "[4]; 4 weeks", "value": 99.4, "unit": "%"}, {"measurement": "HPLC content", "setting": "[4]; initial", "value": 99.7, "unit": "%"}]}]}
